# From PubChem BioAssay AID2060499 (Molecular Pharmacology Branch, DTP, NCI, 2025)
# Test system: 777334-354-R2-J4-PDC tumor spheroids with HUVEC/MSC, viability
# Experiment: Anticancer human tumor 777334-354-R2-J4-PDC patient-derived pancreatic adenocarcinoma cell line growth inhibition [GQUAD]
# Settings: for IC50: curve of first compound; for viability, T/C: stronger effect = lower value
# Outline: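 Viability of tumor cells grown as complex spheroids with endothelial and stromal cells, exposed to drug combinations. Top concentration at or near clinical Cmax (else 10 microM), diluted in half-log increments.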
# [1] = second compound 0.0316 µM, first compound 0.0316 µM
# [2] = second compound 0.0316 µM, first compound 0.1 µM
# [3] = second compound 0.0316 µM, first compound 0.316 µM
# [4] = second compound 0.0316 µM, first compound 1 µM
# [5] = second compound 0.0316 µM, first compound 3.16 µM
# [6] = second compound 0.0316 µM, first compound 10 µM
# [7] = second compound 0.1 µM, first compound 0.0316 µM
# [8] = second compound 0.1 µM, first compound 0.1 µM
# [9] = second compound 0.1 µM, first compound 0.316 µM
# [10] = second compound 0.1 µM, first compound 1 µM
# [11] = second compound 0.1 µM, first compound 3.16 µM
# [12] = second compound 0.1 µM, first compound 10 µM
# [13] = second compound 0.316 µM, first compound 0.0316 µM
# [14] = second compound 0.316 µM, first compound 0.1 µM
# [15] = second compound 0.316 µM, first compound 0.316 µM
# [16] = second compound 0.316 µM, first compound 1 µM
# [17] = second compound 0.316 µM, first compound 3.16 µM
# [18] = second compound 0.316 µM, first compound 10 µM
# [19] = second compound 1 µM, first compound 0.0316 µM
# [20] = second compound 1 µM, first compound 0.1 µM
# [21] = second compound 1 µM, first compound 0.316 µM
# [22] = second compound 1 µM, first compound 1 µM
# [23] = second compound 1 µM, first compound 3.16 µM
# [24] = second compound 1 µM, first compound 10 µM
# [25] = second compound 3.16 µM, first compound 0.0316 µM
# [26] = second compound 3.16 µM, first compound 0.1 µM
# [27] = second compound 3.16 µM, first compound 0.316 µM
# [28] = second compound 3.16 µM, first compound 1 µM
# [29] = second compound 3.16 µM, first compound 3.16 µM
# [30] = second compound 3.16 µM, first compound 10 µM
# [31] = second compound 10 µM, first compound 0.0316 µM
# [32] = second compound 10 µM, first compound 0.1 µM
# [33] = second compound 10 µM, first compound 0.316 µM
# [34] = second compound 10 µM, first compound 1 µM
# [35] = second compound 10 µM, first compound 3.16 µM
# [36] = second compound 10 µM, first compound 10 µM
# 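Note: spheroids exposed to compounds for 7 days before readout.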
compound,measurement,setting,value
CC(C)n1c(=O)n(C)c2cnc3cc(F)c(-c4ccc(OCCCN5CCCCC5)nc4)cc3c21 + CN(C)c1ccc(Nc2c3ccc(NC(=O)CCN4CCCC4)cc3nc3cc(NC(=O)CCN4CCCC4)ccc23)cc1,IC50,second compound 0.0316 µM,> 10000 nM
same,IC50,second compound 0.1 µM,> 10000 nM
same,IC50,second compound 0.316 µM,> 10000 nM
same,IC50,second compound 1 µM,> 10000 nM
same,IC50,second compound 3.16 µM,> 10000 nM
same,IC50,second compound 10 µM,1650 nM
same,"viability, T/C",[1],103%
same,"viability, T/C",[2],94.4%
same,"viability, T/C",[3],99.3%
same,"viability, T/C",[4],107%
same,"viability, T/C",[5],115%
same,"viability, T/C",[6],92.3%
same,"viability, T/C",[7],94%
same,"viability, T/C",[8],93%
same,"viability, T/C",[9],115%
same,"viability, T/C",[10],104%
same,"viability, T/C",[11],113%
same,"viability, T/C",[12],93.4%
same,"viability, T/C",[13],98.2%
same,"viability, T/C",[14],111%
same,"viability, T/C",[15],100%
same,"viability, T/C",[16],107%
same,"viability, T/C",[17],105%
same,"viability, T/C",[18],77.5%
same,"viability, T/C",[19],81.7%
same,"viability, T/C",[20],85.6%
same,"viability, T/C",[21],101%
same,"viability, T/C",[22],90%
same,"viability, T/C",[23],103%
same,"viability, T/C",[24],75.2%
same,"viability, T/C",[25],84.9%
same,"viability, T/C",[26],75.3%
same,"viability, T/C",[27],85.6%
same,"viability, T/C",[28],83.2%
same,"viability, T/C",[29],91.8%
same,"viability, T/C",[30],62.1%
same,"viability, T/C",[31],81.5%
same,"viability, T/C",[32],75%
same,"viability, T/C",[33],61.4%
same,"viability, T/C",[34],58.6%
same,"viability, T/C",[35],42.2%
same,"viability, T/C",[36],31.7%
CC1COCCN1c1cc(-c2ccnn2C)c2ccnc(-c3ccn[nH]3)c2n1 (stereo not given) + CN(C)c1ccc(Nc2c3ccc(NC(=O)CCN4CCCC4)cc3nc3cc(NC(=O)CCN4CCCC4)ccc23)cc1,IC50,second compound 0.0316 µM,1270 nM
same,IC50,second compound 0.1 µM,1060 nM
same,IC50,second compound 0.316 µM,789 nM
same,IC50,second compound 1 µM,654 nM
same,IC50,second compound 3.16 µM,590 nM
same,IC50,second compound 10 µM,555 nM
same,"viability, T/C",[1],103%
same,"viability, T/C",[2],84.2%
same,"viability, T/C",[3],61.7%
same,"viability, T/C",[4],53.9%
same,"viability, T/C",[5],44.4%
same,"viability, T/C",[6],29%
same,"viability, T/C",[7],106%
same,"viability, T/C",[8],77%
same,"viability, T/C",[9],66%
same,"viability, T/C",[10],53.5%
same,"viability, T/C",[11],40.1%
same,"viability, T/C",[12],30.6%
same,"viability, T/C",[13],93.9%
same,"viability, T/C",[14],78%
same,"viability, T/C",[15],59.4%
same,"viability, T/C",[16],46.6%
same,"viability, T/C",[17],38.4%
same,"viability, T/C",[18],27.5%
same,"viability, T/C",[19],90.8%
same,"viability, T/C",[20],77.1%
same,"viability, T/C",[21],51.7%
same,"viability, T/C",[22],48.2%
same,"viability, T/C",[23],37.2%
same,"viability, T/C",[24],27.2%
same,"viability, T/C",[25],87.4%
same,"viability, T/C",[26],65.2%
same,"viability, T/C",[27],53.9%
same,"viability, T/C",[28],46.9%
same,"viability, T/C",[29],38.5%
same,"viability, T/C",[30],22.4%
same,"viability, T/C",[31],77.2%
same,"viability, T/C",[32],66.6%
same,"viability, T/C",[33],57.1%
same,"viability, T/C",[34],42.1%
same,"viability, T/C",[35],32.4%
same,"viability, T/C",[36],17.7%
CC1COCCN1c1cc(C2(O)CC3CCC(C2)O3)c2cnn(-c3ccn[nH]3)c2n1 (stereo not given) + CN(C)c1ccc(Nc2c3ccc(NC(=O)CCN4CCCC4)cc3nc3cc(NC(=O)CCN4CCCC4)ccc23)cc1,IC50,second compound 0.0316 µM,599 nM
same,IC50,second compound 0.1 µM,644 nM
same,IC50,second compound 0.316 µM,599 nM
same,IC50,second compound 1 µM,348 nM
same,IC50,second compound 3.16 µM,296 nM
same,IC50,second compound 10 µM,189 nM
same,"viability, T/C",[1],96.5%
same,"viability, T/C",[2],79.1%
same,"viability, T/C",[3],59.8%
same,"viability, T/C",[4],40.5%
same,"viability, T/C",[5],32%
same,"viability, T/C",[6],20.4%
same,"viability, T/C",[7],105%
same,"viability, T/C",[8],80.3%
same,"viability, T/C",[9],58.8%
same,"viability, T/C",[10],43.3%
same,"viability, T/C",[11],33.9%
same,"viability, T/C",[12],20%
same,"viability, T/C",[13],96.3%
same,"viability, T/C",[14],75.4%
same,"viability, T/C",[15],53.2%
same,"viability, T/C",[16],45.8%
same,"viability, T/C",[17],33.4%
same,"viability, T/C",[18],19%
same,"viability, T/C",[19],83%
same,"viability, T/C",[20],63%
same,"viability, T/C",[21],53%
same,"viability, T/C",[22],36%
same,"viability, T/C",[23],31.4%
same,"viability, T/C",[24],19.1%
same,"viability, T/C",[25],87.9%
same,"viability, T/C",[26],68.8%
same,"viability, T/C",[27],46.7%
same,"viability, T/C",[28],34.7%
same,"viability, T/C",[29],26.9%
same,"viability, T/C",[30],16.5%
same,"viability, T/C",[31],74.7%
same,"viability, T/C",[32],56.1%
same,"viability, T/C",[33],45.8%
same,"viability, T/C",[34],29.7%
same,"viability, T/C",[35],25.5%
same,"viability, T/C",[36],16%
CC1COCCN1c1cc(C2(S(C)(=N)=O)CC2)nc(-c2ccnc3[nH]ccc23)n1 (stereo not given) + CN(C)c1ccc(Nc2c3ccc(NC(=O)CCN4CCCC4)cc3nc3cc(NC(=O)CCN4CCCC4)ccc23)cc1,IC50,second compound 0.0316 µM,> 10000 nM
same,IC50,second compound 0.1 µM,> 10000 nM
same,IC50,second compound 0.316 µM,> 10000 nM
same,IC50,second compound 1 µM,8960 nM
same,IC50,second compound 3.16 µM,7800 nM
same,IC50,second compound 10 µM,8890 nM
same,"viability, T/C",[1],89%
same,"viability, T/C",[2],85.8%
same,"viability, T/C",[3],98.5%
same,"viability, T/C",[4],86.8%
same,"viability, T/C",[5],79.3%
same,"viability, T/C",[6],58.3%
same,"viability, T/C",[7],107%
same,"viability, T/C",[8],84.6%
same,"viability, T/C",[9],98.2%
same,"viability, T/C",[10],95.2%
same,"viability, T/C",[11],79.7%
same,"viability, T/C",[12],57.1%
same,"viability, T/C",[13],92.5%
same,"viability, T/C",[14],95.9%
same,"viability, T/C",[15],100%
same,"viability, T/C",[16],82.9%
same,"viability, T/C",[17],85.2%
same,"viability, T/C",[18],50.5%
same,"viability, T/C",[19],90.5%
same,"viability, T/C",[20],79.8%
same,"viability, T/C",[21],74.7%
same,"viability, T/C",[22],83.9%
same,"viability, T/C",[23],79.5%
same,"viability, T/C",[24],46.9%
same,"viability, T/C",[25],80.5%
same,"viability, T/C",[26],82.6%
same,"viability, T/C",[27],86.8%
same,"viability, T/C",[28],78.6%
same,"viability, T/C",[29],67.7%
same,"viability, T/C",[30],45.1%
same,"viability, T/C",[31],82.3%
same,"viability, T/C",[32],78.3%
same,"viability, T/C",[33],72.7%
same,"viability, T/C",[34],67.7%
same,"viability, T/C",[35],65.2%
same,"viability, T/C",[36],47.5%
COc1ccc([C@@H](O)c2cc(-c3ncnc4cc(N5CCOCC5)ccc34)c(F)cc2Cl)nn1 + CN(C)c1ccc(Nc2c3ccc(NC(=O)CCN4CCCC4)cc3nc3cc(NC(=O)CCN4CCCC4)ccc23)cc1,IC50,second compound 0.0316 µM,3580 nM
same,IC50,second compound 0.1 µM,3710 nM
same,IC50,second compound 0.316 µM,2970 nM
same,IC50,second compound 1 µM,2710 nM
same,IC50,second compound 3.16 µM,1860 nM
same,IC50,second compound 10 µM,1120 nM
same,"viability, T/C",[1],88.8%
same,"viability, T/C",[2],88.9%
same,"viability, T/C",[3],84.3%
same,"viability, T/C",[4],72.4%
same,"viability, T/C",[5],53.6%
same,"viability, T/C",[6],23.9%
same,"viability, T/C",[7],96.6%
same,"viability, T/C",[8],81.3%
same,"viability, T/C",[9],96.2%
same,"viability, T/C",[10],68.8%
same,"viability, T/C",[11],55.5%
same,"viability, T/C",[12],26.9%
same,"viability, T/C",[13],96.8%
same,"viability, T/C",[14],83.2%
same,"viability, T/C",[15],79.4%
same,"viability, T/C",[16],68.7%
same,"viability, T/C",[17],48.9%
same,"viability, T/C",[18],24.5%
same,"viability, T/C",[19],86.2%
same,"viability, T/C",[20],86.4%
same,"viability, T/C",[21],76.6%
same,"viability, T/C",[22],73.1%
same,"viability, T/C",[23],45.7%
same,"viability, T/C",[24],23.1%
same,"viability, T/C",[25],72.5%
same,"viability, T/C",[26],81.2%
same,"viability, T/C",[27],73.3%
same,"viability, T/C",[28],57.8%
same,"viability, T/C",[29],42.5%
same,"viability, T/C",[30],20.6%
same,"viability, T/C",[31],81.3%
same,"viability, T/C",[32],71.8%
same,"viability, T/C",[33],69.5%
same,"viability, T/C",[34],51%
same,"viability, T/C",[35],32.9%
same,"viability, T/C",[36],17.4%
